Results: US20180030091A1, “COLLAGEN-BINDING SYNTHETIC PEPTIDOGLYCANS FOR USE IN VASCULAR INTERVENTION” (Purdue Research Foundation, priority 2010, published 2018)
“Also recorded” adds a separate entry of the source. Where no end group is shown, it is not given here.

What was measured:
[1] = biological target: Fibrillar collagen; assay: Binding affinity of biotin labeled peptidoglycan to fibrillar collagen; conditions: biotin labeled peptidoglycans, fitted saturation binding curves
Description: Fibrillar collagen (Chronolog, Havertown, Pa.) was coated onto the surface of a 96-well high bind plate (Costar) at a concentration of 50 μg/mL diluted in isotonic glucose. Plates were covered and incubated overnight at 4° C. Unbound collagen was removed by rinsing 3 times with 1×PBS pH 7.4. Plates were then blocked with 1% BSA for 3 hours at room temperature. Peptidoglycan was dissolved at varying concentrations in 1×PBS pH 7.4 containing 1% BSA and were immediately added to the collagen surfaces, and allowed to incubate for 15 min at room temperature. Plates were then rinsed 3 times with 1×PBS pH 7.4 containing 1% BSA. Streptavidin-HRP solution (R&D Systems, Minneapolis, Minn.) was then added to the plates and incubated for 20 minutes at room temperature. […] The color evolving reaction was stopped with 50 μL 2N sulfuric acid and absorbance was measured at 450 nm using an M5 UV Vis Spectrophotometer (Molecular Devices). Plate imperfections (540 nm) were subtracted from absorbance values.
The binding affinities of biotin labeled peptidoglycans, labeled using protocols known in the art, DS-SILY4 and DS-SILY18 were calculated by fitting the saturation binding curves and calculating the inflection point. […]

[2] = test system: Human platelets on Type I fibrillar collagen; assay: Inhibition of platelet activation on fibrillar collagen after 24 hour rinse (PF4, NAP2); format: cell-based; conditions: unbound peptidoglycan rinsed over 24 hours; PF-4 and Nap-2 release
Description: Type I fibrillar collagen from Chronolog was diluted in isotonic glucose to a concentration of 50 μg/mL. 50 μL of collagen solution was added to each well of a high bind 96-well plate. The plate was incubated overnight at 4° C., and then rinsed 3× with 1×PBS. For microplate assays, peptidoglycan was diluted in 1×PBS at concentrations between 0.0001 μM to 100 μM and 50 μL solution was added to the collagen coated wells. DS, peptide, or 1×PBS were also added to collagen coated wells as controls. Treatments were incubated at 37° C. with shaking at 200 rpm for 15 min. Wells were then rinsed of unbound treatment by removing the treatment solution, adding PBS, and shaking the wells for 24 hours. During the 24 hours, PBS solution was changed 3 times.
Human whole blood was collected from healthy volunteers by venipuncture. The first 5 mL of blood was discarded and approximately 20 mL was then collected into citrated glass vacutainers (BD Bioscience). Blood was centrifuged in the glass tube for 20 min at 200 g at 25° C. The top layer of the centrifuged blood, the platelet rich plasma (PRP), was used for platelet experiments.
PRP (50 μL/well) was added to the microplate for 1 hour at room temperature without shaking. After 1 hour of incubation, 45 μL of PRP was removed from each well and added to a microcentrifuge tube containing […] ETP (107 mM EDTA, 12 mM theophylline, and 2.8 mM prostaglandin E1) to inhibit further platelet activation. These tubes were spun at 4° C. for 30 min at 2000 g to pellet the platelets. The supernatant (platelet serum) was collected for ELISA studies to test for the presence of platelet activation markers PF-4 and NAP2. Sandwich ELISAs were utilized in order to detect each protein. The components for both sandwich ELISAs were purchased from R&D Systems and the provided protocols were followed. Platelet serum was diluted 10,000 times in 1% BSA in 1×PBS for values to fall within a linear range.
Platelet activation was measured through release of platelet factor 4 (PF4) and β-thromboglobulin (NAP2). […] Since the high SILY/DS ratio is expected to provide higher binding affinity to the collagen surface due to multiple interactions, peptidoglycans with the higher SILY/DS ratios were prepared.
The number of peptides per DS molecule was further increased to 18 to create the peptidoglycan DS-SILY18, and the concentration of molecule needed to inhibit platelet activation was tested. […] Within solubility limits, the number of peptides can be increased to achieve maximal platelet inhibition as well as to reduce diffusion over time, where a higher level of peptidoglycans on the denuded vessel wall is sustained.

[3] = test system: Fibrillar collagen; assay: Peptidoglycan diffusion from collagen surface; format: binding; conditions: after 1 week of extensive rinsing at 37° C.; applied at 10 μM
Description: The peptidoglycan OS-SILY18-biotin was dissolved at 10 μM in 1×PBS pH 7.4 with 2% BSA and was incubated on fibrillar collagen coated plates prepared as described. The plate was incubated at 37° C. on an orbital shaker and was rinsed extensively with 1×PBS pH 7.4. At various time points up to 11 days, OS-SILY18-biotin was detected on the surface as described for the binding affinity studies. The curve of diffusion of peptidoglycan from the collagen surface was fitted using a hyperbolic decay.
The diffusion of the peptidoglycan DS-SILY18 from a collagen surface was measured by incubating at 37° C. and rinsing extensively in order to mimic blood flow in vivo. Peptidoglycan was incubated on fibrillar collagen surfaces and detected by the same methods for calculating binding affinities. […] It is estimated that complete endothelial cell regrowth occurs within 1 week of balloon injury, and thus this time frame is useful for preventing platelet binding until endothelial cells grow back and provide a permanent cover to the underlying collagen.

[4] = test system: Human coronary artery endothelial cells (ECs); assay: Endothelial cell proliferation; format: cell-based; conditions: highest concentration tested (final concentrations 35, 3.5, and 0.35 μM); 48 hours
Description: Human coronary artery endothelial cells (ECs) (Lonza, Walkersville, Md.) were seeded in 96-well plates at a cell density of 1.5×10^3 cells/well. Cells were allowed to adhere to the surface for 24 hours and adherent ECs were stained using cell tracker green (Invitrogen, Carlsbad, Calif.). Initial cell number was determined by measuring fluorescence of each well with 492 nm excitation and 517 nm emission.
DS-SILY18 was solubilized in water at a concentration of […] and diluted in water 10 fold for concentrations of 175, 17.5, and 1.75 μM. The DS-SILY solution was diluted 5 fold with cell media for final concentrations of […]. The control consisted of diluting water 5 fold with cell media. 100 μL of media with DS-SILY was added to each well and the cell number was determined 48 hours later by measuring fluorescence. The percent change in cell number in each well was calculated.

[5] = test system: Whole blood on fibrillar collagen; assay: Inhibition of whole blood binding to collagen under flow; format: cell-based; conditions: 50 μM for 15 min; 5.6 mL/hr, shear rate 1000 s^−1, 5 min of flow
Description: Flow kits were obtained from Ibidi (Martinsried, Germany). Each channel was coated with fibrillar collagen as described for static microplate studies. Excess collagen was removed from the flow channel by extensive rinsing with 1×PBS through the channel. DS-SILY18 was incubated in the channel at a concentration of 50 μM for 15 min at 37° C., and unbound peptidoglycan was rinsed with 1×PBS. Control channels consisted of collagen not treated with peptidoglycan.
Whole blood was pushed through the flow channels by a syringe pump at a flow rate of 5.6 mL/hr, corresponding to a physiologically relevant shear rate of 1000 s^−1 (Badimon L, Badimon J J, Turitto V T, Vallabhajosula S, Fuster V. Platelet thrombus formation on collagen type I—a model of deep vessel injury—influence of blood rheology, von Willebrand Factor, and blood-coagulation. Circulation 1988; 78(6):1431-42). After 5 min of flow, 1×PBS pH 7.4 was pushed through at the same flow rate for 10 min to wash unbound cells. Brightfield images (n=3) were taken of each flow channel with a 10× objective. Images were thresholded and quantified for cellular coverage using ImageJ (NIH, Bethesda, Md.) and MatLab (Mathworks, Natick, Mass.) respectively. Control channels were assumed to have complete cellular coverage.

## DS-SILY18: dermatan sulfate with 18 peptides of the sequence RRANAALKAGELYKSILYGC linked to the glycan (RRANAALKAGELYKSILYGC-NH2; also: 18 copies linked to dermatan sulfate)
[1]
  Kd: 24 nM
[2]
  concentration at which maximal inhibition of platelet activation was achieved: 10 µM
[3]
  equivalent concentration remaining bound on collagen surface: approximately 10 nM
[4]
  endothelial cell proliferation (percent change in cell number): significant increase in cell proliferation
[5]
  blood cell binding to collagen under flow: inhibition; also recorded: much less blood cell binding to collagen
